Consider seven compounds from patent publication US4689333A, “2-(2-pyridylmethylthio (sulfinyl)) benzimidazoles” (Takeda Chemical Industries, Ltd., priority 1984, dated 1987).

Where only a bound is given, the exact number is not on record here.

The first data set in a line: Toxicity, oral administration to mice. It counts as in vivo. The settings on record: even in a dose of 2000 mg/kg.
For the compound `Cc1c(OCC(F)(F)C(F)(F)F)ccnc1C[S+]([O-])c1nc2ccccc2[nH]1` (centres unmarked) [2-[3-methyl-4-(2,2,3,3,3-pentafluoropropoxy)pyrid-2-yl]methylsulfinylbenzimidazole], the “fatal effect on oral administration” value is on record as “no fatal effect”.

The nature of a further data set: Anti-ulcer action: indomethacin-induced gastric antral ulcer in rats. In kind it is in vivo, Male Sprague-Dawley rats. To be noted: Rattus norvegicus, po, 5 h, p.o., 30 min before indomethacin 30 mg/kg s.c., 6 rats per group, doses 1, 3, 10 and 30 mg/kg, read-out: Anti-ulcer action ID50. From the text: As the models of gastrointestinal ulcers, restraint and water-immersion stress-induced ulcer, indomethacin-induced ulcer and ethanol-induced gastric mucosal lesions have been used. However, as a model mimicking human gastric ulcer, indomethacin-induced gastric antral ulcer was reported in "Gastroenterology" (Satoh et al. 81, p. 719, 1981), which is considered to be of value as an experimental model. Therefore, the following are data of anti-ulcer actions of the object compounds (I) and of some representable known compounds, on the ulcer model in the above-mentioned literature reference.
Male Sprague-Dawley rats of 7-weeks old were fasted for 24 hours. These animals were administered test compounds into stomach by using a gastric tube. After 30 minutes, indomethacin, 30 mg/kg subcutaneously, was administered. During 30-90 minutes after the administration of indomethacin, these animals had free access to chow pellets (Japan Clea, CE-2). At 5 hours after the administration of indomethacin, 1 ml of 1% Evans blue was injected to the animals via the tail vein, followed by sacrificing these animals with carbon dioxide gas. The stomach was removed together with the lower part of esophagus and the duodenum. The esophagus was clipped, 10 ml of 1% formalin solution was instilled into the stomach from the duodenum, and then the duodenum was clipped. The whole stomach was immersed in 1% formalin solution. About 15 minutes later, the stomachs were opened along the greater curvature. The area of the lesions which occurred in the gastric antral mucosa was measured under a dissecting microscope with a square-grid eye piece (x10). The sum total of the individual lesions in each animal was measured, and the average value per group was calculated. Based on the difference between the average value of each group and that of the control group, the inhibition rate was determined. The test compound and indomethahacin were suspended in a 5% gum arabic solution, respectively and administered in a volume of 2 ml/kg.
^(a) Using 6 rats per group, each of the test compounds was
administered in a dose of 1, 3, 10 and 30 mg/kg to determine ID50.
As to `Cc1c(OCC(F)(F)C(F)F)ccnc1C[S+]([O-])c1nc2ccccc2[nH]1` (centres unmarked), the ED50 is less than 1 mg/kg.

In the case of `[O-][S+](Cc1cc(OCC(F)(F)C(F)F)ccn1)c1nc2ccccc2[nH]1` (centres unmarked), the ED50 came to 1.3 mg/kg. On to `[O-][S+](Cc1cc(OCC(F)(F)C(F)(F)F)ccn1)c1nc2ccccc2[nH]1` (centres unmarked), for which the ED50 is 1.3 mg/kg.

For the compound `Cc1c(OCC(F)(F)C(F)(F)F)ccnc1CSc1nc2ccccc2[nH]1` [2-[3-methyl-4-(2,2,3,3,3-pentafluoropropoxy)-pyrid-2-yl]methylthiobenzimidazole], the ED50 amounted to 3.7 mg/kg. The same measure, in the same setting: under `Cc1c(OCC(F)(F)C(F)(F)F)ccnc1C[S+]([O-])c1nc2ccccc2[nH]1` (centres unmarked) [2-[3-methyl-4-(2,2,3,3,3-pentafluoropropoxy)pyrid-2-yl]methylsulfinylbenzimidazole] stands less than 1 mg/kg; under `Cc1c(OCC(F)(F)F)ccnc1C[S+]([O-])c1nc2ccccc2[nH]1` (centres unmarked) [R^1=H, R^2=CH3, R^3=H, R^4=CH2 CF3, n=1, 2-[3methyl-4-(2,2,2-trifluoroethoxy)-pyrid-2-yl]methylsulfinylbenzimidazo], less than 1 mg/kg.

`[O-][S+](Cc1cc(OCC(F)(F)F)ccn1)c1nc2ccccc2[nH]1` (centres unmarked) [R^1=H, R^2=H, R^3=H, R^4=CH2 CF3, n=1]: the ED50 came to 2.4 mg/kg.
